Results as given in PubChem BioAssay (NCI).
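The compound was tested at five concentrations on cells cultured in 96-well plates, with a 48-hour exposure period. GI50 marks 50% less growth. TGI is the concentration that stops growth completely.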

Assays:
Assay in all cases: inhibition of tumour cell growth, NCI panel, 48 h
[1] = system: SK-OV-3 ovarian
[2] = system: TK-10 renal
[3] = system: BT-549 breast
[4] = system: SF-539 CNS
[5] = system: UACC-257 melanoma
[6] = system: SW-620 colon
[7] = system: UACC-62 melanoma
[8] = system: M14 melanoma
[9] = system: OVCAR-8 ovarian
[10] = system: NCI-H522 lung
[11] = system: SN12C renal
[12] = system: PC-3 prostate
[13] = system: HCT-116 colon
[14] = system: CAKI-1 renal
[15] = system: MOLT-4 leukemia
[16] = system: MALME-3M melanoma
[17] = system: EKVX NSCLC
[18] = system: A549 NSCLC
[19] = system: LOX IMVI melanoma
[20] = system: SK-MEL-5 melanoma
[21] = system: SNB-19 CNS
[22] = system: OVCAR-3 ovarian
[23] = system: HOP-62 NSCLC
[24] = system: MDA-MB-435
[25] = system: OVCAR-5 ovarian
[26] = system: HCC-2998 colon
[27] = system: HOP-92 NSCLC
[28] = system: SF-295 CNS
[29] = system: UO-31 renal
[30] = system: K-562 leukemia
[31] = system: IGROV1 ovarian
[32] = system: DU-145 prostate
[33] = system: CCRF-CEM leukemia
[34] = system: U251 CNS
[35] = system: KM12 colon
[36] = system: HCT-15 colon
[37] = system: SNB-75 CNS
[38] = system: SK-MEL-28 melanoma
[39] = system: SK-MEL-2 melanoma
[40] = system: ACHN renal
[41] = system: MCF7 breast
[42] = system: A498 renal
[43] = system: HL-60(TB) leukemia
[44] = system: NCI-H460 lung
[45] = system: NCI-H23 lung
[46] = system: OVCAR-4 ovarian
[47] = system: SF-268 CNS
[48] = system: RXF 393 renal
[49] = system: SR leukemia
[50] = system: MDA-MB-231 breast

Structure (SMILES): Cc1ccc(C2CC(c3cccc(Nc4ccncc4)c3)=NN2c2cc(Cl)cc(Cl)c2)cc1 (stereo not drawn)
- GI50 [1]: 1680 nM
- TGI [1]: 3380 nM
- GI50 [2]: 1640 nM
- TGI [2]: 3070 nM
- GI50 [3]: 1740 nM
- TGI [3]: 3380 nM
- GI50 [4]: 1650 nM
- TGI [4]: 3050 nM
- GI50 [5]: 1880 nM
- TGI [5]: 3830 nM
- GI50 [6]: 1690 nM
- TGI [6]: 3260 nM
- GI50 [7]: 1770 nM
- TGI [7]: 3250 nM
- GI50 [8]: 1930 nM
- TGI [8]: 3990 nM
- GI50 [9]: 2210 nM
- TGI [9]: 5240 nM
- GI50 [10]: 1730 nM
- TGI [10]: 3580 nM
- GI50 [11]: 1710 nM
- TGI [11]: 3240 nM
- GI50 [12]: 1580 nM
- TGI [12]: 3200 nM
- GI50 [13]: 1850 nM
- TGI [13]: 3850 nM
- GI50 [14]: 1540 nM
- TGI [14]: 3030 nM
- GI50 [15]: 1940 nM
- TGI [15]: 4440 nM
- GI50 [16]: 1670 nM
- TGI [16]: 3250 nM
- GI50 [17]: 1550 nM
- TGI [17]: 2940 nM
- GI50 [18]: 1780 nM
- TGI [18]: 3600 nM
- GI50 [19]: 1550 nM
- TGI [19]: 2890 nM
- GI50 [20]: 1760 nM
- TGI [20]: 3170 nM
- GI50 [21]: 1720 nM
- TGI [21]: 3450 nM
- GI50 [22]: 1720 nM
- TGI [22]: 3230 nM
- GI50 [23]: 1910 nM
- TGI [23]: 4530 nM
- GI50 [24]: 1660 nM
- TGI [24]: 3110 nM
- GI50 [25]: 1650 nM
- TGI [25]: 3060 nM
- GI50 [26]: 1520 nM
- TGI [26]: 2850 nM
- GI50 [27]: 1370 nM
- TGI [27]: 2780 nM
- GI50 [28]: 1720 nM
- TGI [28]: 3100 nM
- GI50 [29]: 1310 nM
- TGI [29]: 2590 nM
- GI50 [30]: 1850 nM
- TGI [30]: 4580 nM
- GI50 [31]: 1690 nM
- TGI [31]: 3230 nM
- GI50 [32]: 1900 nM
- TGI [32]: 3520 nM
- GI50 [33]: 3470 nM
- TGI [33]: > 100000 nM
- GI50 [34]: 1860 nM
- TGI [34]: 3880 nM
- GI50 [35]: 1650 nM
- TGI [35]: 3040 nM
- GI50 [36]: 1670 nM
- TGI [36]: 3100 nM
- GI50 [37]: 1230 nM
- TGI [37]: 2620 nM
- GI50 [38]: 1770 nM
- TGI [38]: 3300 nM
- GI50 [39]: 2000 nM
- TGI [39]: 3990 nM
- GI50 [40]: 1650 nM
- TGI [40]: 3000 nM
- GI50 [41]: 1890 nM
- TGI [41]: 4100 nM
- GI50 [42]: 1210 nM
- TGI [42]: 2470 nM
- GI50 [43]: 1830 nM
- TGI [43]: 4110 nM
- GI50 [44]: 1830 nM
- TGI [44]: 3550 nM
- GI50 [45]: 1760 nM
- TGI [45]: 3350 nM
- GI50 [46]: 1580 nM
- TGI [46]: 3100 nM

Structure (SMILES): CN1CCN(CCCOc2ccc3ncnc(Nc4ccc(OCc5cccc(F)c5)c(Cl)c4)c3c2)CC1
- GI50 [2]: 577 nM
- TGI [2]: 2320 nM
- GI50 [3]: 1580 nM
- TGI [3]: 3000 nM
- GI50 [4]: 1670 nM
- TGI [4]: 3090 nM
- GI50 [6]: 1730 nM
- TGI [6]: 3280 nM
- GI50 [7]: 1700 nM
- TGI [7]: 3240 nM
- GI50 [11]: 1630 nM
- TGI [11]: 3100 nM
- GI50 [12]: 1740 nM
- TGI [12]: 3390 nM
- GI50 [14]: 1130 nM
- TGI [14]: 2340 nM
- GI50 [16]: 1650 nM
- TGI [16]: 3230 nM
- GI50 [17]: 1140 nM
- TGI [17]: 2470 nM
- GI50 [47]: 1490 nM
- TGI [47]: 3150 nM
- GI50 [19]: 1750 nM
- TGI [19]: 3230 nM
- GI50 [20]: 1670 nM
- TGI [20]: 3040 nM
- GI50 [21]: 1500 nM
- TGI [21]: 2870 nM
- GI50 [22]: 1480 nM
- TGI [22]: 2920 nM
- GI50 [24]: 1610 nM
- TGI [24]: 3110 nM
- GI50 [25]: 1600 nM
- TGI [25]: 3050 nM
- GI50 [26]: 1700 nM
- TGI [26]: 3170 nM
- GI50 [27]: 1150 nM
- TGI [27]: 2540 nM
- GI50 [28]: 1770 nM
- TGI [28]: 3190 nM
- GI50 [29]: 1180 nM
- TGI [29]: 2490 nM
- GI50 [31]: 1020 nM
- TGI [31]: 2550 nM
- GI50 [32]: 1100 nM
- TGI [32]: 2350 nM
- GI50 [33]: 1570 nM
- TGI [33]: 3530 nM
- GI50 [48]: 1580 nM
- TGI [48]: 3070 nM
- GI50 [35]: 1730 nM
- TGI [35]: 3210 nM
- GI50 [36]: 1060 nM
- TGI [36]: 2350 nM
- GI50 [49]: 379 nM
- TGI [49]: 1790 nM
- GI50 [37]: 1380 nM
- TGI [37]: 2710 nM
- GI50 [38]: 1720 nM
- TGI [38]: 3190 nM
- GI50 [39]: 2070 nM
- TGI [39]: 4040 nM
- GI50 [40]: 639 nM
- TGI [40]: 1950 nM
- GI50 [41]: 1500 nM
- TGI [41]: 2960 nM
- GI50 [42]: 1130 nM
- TGI [42]: 2420 nM
- GI50 [44]: 1780 nM
- TGI [44]: 3380 nM
- GI50 [50]: 1620 nM
- TGI [50]: 3100 nM
- GI50 [45]: 1690 nM
- TGI [45]: 3200 nM
- GI50 [46]: 1570 nM
- TGI [46]: 3350 nM
